Data as given in patent US6436945B2, “Substituted O6-benzyl-8-aza-guanines” (The United States of America as represented by the of …, priority 1994, dated 2002).
pEC50: −log10 of the molar value. Blank lines part the entries; values can stand above or below the compound they belong to.

Columns and labels:
[1] = biological target: T1, O^6-alkylguanine-DNA alkyltransferase (AGT) (Homo sapiens, UniProt P16455); experiment: AGT inactivation in intact HT29 cells; conditions: for ratio of ED50 values in cell-free extracts/intact cells: HT29; for AGT inactivating activity in intact HT29 cells, in words: comparison
T1 sequence (P16455 1-207): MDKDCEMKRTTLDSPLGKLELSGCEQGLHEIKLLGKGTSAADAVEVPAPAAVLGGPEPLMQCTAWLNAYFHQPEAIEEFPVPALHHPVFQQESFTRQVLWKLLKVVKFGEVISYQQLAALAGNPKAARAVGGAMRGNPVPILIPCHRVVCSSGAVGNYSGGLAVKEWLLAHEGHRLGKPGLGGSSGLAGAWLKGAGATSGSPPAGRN
Experimental: (§1) The data represent the dose of compound required to produce 50% inactivation in cell-free extracts upon incubation for 30 min or in cells upon incubation for 4 hr.

[2] = biological target: T1, O^6-alkylguanine-DNA alkyltransferase (AGT); experiment: AGT inactivation in HT29 cell-free extract; conditions: for AGT inactivating activity in HT29 cell-free extracts, in words: comparison
Experimental: as §1

HT-29 colon cancer cells = experiment: Killing of HT-29 colon cancer cells by BCNU combined with AGT inactivators (colony formation); conditions: for Colony Formation per 1000 cells: HT-29
Experimental: (§2) Cells were treated for 2 h with AGT inactivator prior to exposure to BCNU.

[3] = test system: MCF-71 breast cancer cells; experiment: Killing of MCF-71 breast cancer cells by BCNU combined with AGT inactivators (colony formation)
Experimental: as §2

[4] = test system: DU-145 prostate cancer cells; experiment: Killing of DU-145 prostate cancer cells by BCNU combined with AGT inactivators (colony formation)
Experimental: as §2

[5] = BCNU 40 μM, statement covers HT29, DU-145 and MCF-71 cells (Tables 3-5)

pEC50 [1]: 4.22
pEC50 [2]: 3.80
SMILES: CNc1nc(OCc2ccccc2)c2nc[nH]c2n1 [Compound 4e, O^6-Benzyl-N^2-methylguanine]

pEC50 [1]: 3.96
pEC50 [2]: 3.70
SMILES: CN(C)c1nc(OCc2ccccc2)c2nc[nH]c2n1 [Compound 4f, O^6-Benzyl-N^2,N^2-dimethylguanine]

pEC50 [1]: 4.96
pEC50 [2]: 4.19
SMILES: CC(=O)Nc1nc(OCc2ccccc2)c2[nH]c(=O)[nH]c2n1 [Compound 4d, N^2-Acetyl-O^6-benzyl-8-oxoguanine]

pEC50 [1]: 5.10
pEC50 [2]: 4.55
SMILES: Nc1ncnc(OCc2ccccc2)c1[N+](=O)[O-] [Compound 3a, 4-Amino-6-benzyloxy-5-nitropyrimidine]

pEC50 [1]: 4.92
pEC50 [2]: 4.32
SMILES: Fc1nc(OCc2ccccc2)c2nc[nH]c2n1 [Compound 4c, O^6-benzyl-2-fluorohypoxanthine]

pEC50 [1]: 4.35
pEC50 [2]: 4.60
SMILES: O=c1nc(OCc2ccccc2)c2[nH]c(=O)[nH]c2[nH]1 [Compound 4b, O^6-Benzyluric acid]

pEC50 [1]: 6.60
ratio of ED50 values in cell-free extracts/intact cells [1]: 7.2
pEC50 [2]: 5.72
SMILES: Cn1c(Br)nc2c(OCc3ccccc3)nc(N)nc21 [Compound 10a, O^6-Benzyl-8-bromo-9-methylguanine]
AGT inactivating activity in intact HT29 cells, in words [1]: significantly higher than their activity in cell-free extracts

pEC50 [1]: 7.10
ratio of ED50 values in cell-free extracts/intact cells [1]: 6.3
pEC50 [2]: 6.30
SMILES: Cn1nnc2c(OCc3ccccc3)nc(N)nc21 [Compound 8a, 8-Aza-O^6-benzyl-9-methylguanine]
AGT inactivating activity in intact HT29 cells, in words [1]: significantly higher than their activity in cell-free extracts

pEC50 [1]: 6.52
pEC50 [2]: 6.40
SMILES: Nc1nc(N)c(N)c(OCc2ccccc2)n1 [Compound 3c, 2,4,5-triamino-6-benzyloxypyrimidine]
enhancement of BCNU cytotoxicity, in words (HT-29 colon cancer cells; [5]): as effective as the 8-substituted O^6-bezylguanine derivatives and O^6-benzylguanine itself
Colony Formation per 1000 cells (HT-29 colon cancer cells; inactivator 1 μM, BCNU 40 μM): 487 ± 32 per 1000 cells
Colony Formation per 1000 cells (HT-29 colon cancer cells; inactivator 10 μM, BCNU 40 μM): 3 ± 1 per 1000 cells
Colony Formation per 1000 cells (HT-29 colon cancer cells; inactivator 10 μM, BCNU none): 453 ± 59 per 1000 cells
Colony Formation per 1000 cells ([3]; inactivator 10 μM, BCNU 40 μM): 12 ± 4 per 1000 cells
Colony Formation per 1000 cells ([3]; inactivator 10 μM, BCNU none): 448 ± 55 per 1000 cells
Colony Formation per 1000 cells ([4]; inactivator 1 μM, BCNU 40 μM): 378 ± 60 per 1000 cells
Colony Formation per 1000 cells ([4]; inactivator 10 μM, BCNU 40 μM): 57 ± 7 per 1000 cells
Colony Formation per 1000 cells ([4]; inactivator 10 μM, BCNU none): 429 ± 101 per 1000 cells

pEC50 [1]: 7.22
AGT inactivating activity in intact HT29 cells, in words [1]: quite active in cells
pEC50 [2]: 6.40
SMILES: Cc1nc(N)nc(OCc2ccccc2)c1[N+](=O)[O-] [Compound 5b, 2-Amino-4-benzyloxy-6-methyl-5-nitropyrimidine]

pEC50 [1]: 4.46
pEC50 [2]: 4.22
SMILES: O=c1nc(OCc2ccccc2)c2[nH]cnc2[nH]1 [Compound 4a, O^6-Benzylxanthine]

pEC50 [1]: 6.10
pEC50 [2]: 5.70
AGT inactivating activity in HT29 cell-free extracts, in words [2]: considerably more active than 3b
SMILES: Nc1nc(N)c(Br)c(OCc2ccccc2)n1 [Compound 3f, 2,4-Diamino-6-benzyloxy-5-bromopyrimidine]

pEC50 [1]: 5.30
pEC50 [2]: 4.82
SMILES: Nc1cc(OCc2ccccc2)nc(N)n1 [Compound 3b, 2,4-diamino-6-benzyloxypyrimidine]

pEC50 [1]: 7.30
AGT inactivating activity in intact HT29 cells, in words [1]: quite active in cells
pEC50 [2]: 6.40
AGT inactivating activity in HT29 cell-free extracts, in words [2]: much more active than 3a
SMILES: Nc1ncc([N+](=O)[O-])c(OCc2ccccc2)n1 [Compound 5a, 2-Amino-4-benzyloxy-5-nitropyrimidine]

Second part, the compound before the results:

SMILES: Nc1nc(OCc2ccccc2)c2[nH]c(=O)[nH]c2n1 [Compound 1c, O^6-Benzyl-8-oxoguanine]
pEC50 [1]: 6.82
pEC50 [2]: 6.52
Colony Formation per 1000 cells (HT-29 colon cancer cells; inactivator 1 μM, BCNU 40 μM): 221 ± 15 per 1000 cells
Colony Formation per 1000 cells (HT-29 colon cancer cells; inactivator 10 μM, BCNU 40 μM): <1 per 1000 cells
Colony Formation per 1000 cells (HT-29 colon cancer cells; inactivator 10 μM, BCNU none): 401 ± 22 per 1000 cells
Colony Formation per 1000 cells ([3]; inactivator 10 μM, BCNU 40 μM): 4 ± 2 per 1000 cells
Colony Formation per 1000 cells ([3]; inactivator 10 μM, BCNU none): 522 ± 78 per 1000 cells
Colony Formation per 1000 cells ([4]; inactivator 1 μM, BCNU 40 μM): 329 ± 43 per 1000 cells
Colony Formation per 1000 cells ([4]; inactivator 10 μM, BCNU 40 μM): 34 ± 3 per 1000 cells
Colony Formation per 1000 cells ([4]; inactivator 10 μM, BCNU none): 379 ± 34 per 1000 cells

SMILES: Cn1c(C(F)(F)F)nc2c(OCc3ccccc3)nc(N)nc21 [Compound 7, O^6-Benzyl-8-trifluoromethyl-9-methylguanine]
melting point: 86 to 89 °C
pEC50 [1]: 6.40
ratio of ED50 values in cell-free extracts/intact cells [1]: 6.3
AGT inactivating activity in intact HT29 cells, in words [1]: significantly higher than their activity in cell-free extracts
pEC50 [2]: 5.60

SMILES: Nc1nc(N)c([N+](=O)[O-])c(OCc2ccccc2)n1 [Compound 3e, 2,4-diamino-6-benzyloxy-5-nitropyrimidine]
enhancement of BCNU cytotoxicity, in words (HT-29 colon cancer cells; [5]): similarly effective at a 4-fold lower dose
Colony Formation per 1000 cells (HT-29 colon cancer cells; inactivator 1 μM, BCNU 40 μM): 45 ± 4 per 1000 cells
Colony Formation per 1000 cells (HT-29 colon cancer cells; inactivator […], BCNU 40 μM): <1 per 1000 cells
Colony Formation per 1000 cells ([3]; inactivator […], BCNU 40 μM): 2 ± 1 per 1000 cells
Colony Formation per 1000 cells ([4]; inactivator 1 μM, BCNU 40 μM): 59 ± 6 per 1000 cells

SMILES: Nc1nc(OCc2ccccc2)c2nc(N)[nH]c2n1 [Compound 1a, 8-Amino-O^6-benzylguanine]
pEC50 [1]: 5.70
pEC50 [2]: 6.15
enhancement of BCNU cytotoxicity, in words (HT-29 colon cancer cells; [5]): comparatively low activity
Colony Formation per 1000 cells (HT-29 colon cancer cells; inactivator 1 μM, BCNU 40 μM): 475 ± 26 per 1000 cells
Colony Formation per 1000 cells (HT-29 colon cancer cells; inactivator 10 μM, BCNU 40 μM): 430 ± 41 per 1000 cells
Colony Formation per 1000 cells (HT-29 colon cancer cells; inactivator 10 μM, BCNU none): 504 ± 30 per 1000 cells
Colony Formation per 1000 cells ([3]; inactivator 10 μM, BCNU 40 μM): 95 ± 8 per 1000 cells
Colony Formation per 1000 cells ([3]; inactivator 10 μM, BCNU none): 432 ± 36 per 1000 cells
Colony Formation per 1000 cells ([4]; inactivator 1 μM, BCNU 40 μM): 295 ± 45 per 1000 cells
Colony Formation per 1000 cells ([4]; inactivator 10 μM, BCNU 40 μM): 435 ± 70 per 1000 cells
Colony Formation per 1000 cells ([4]; inactivator 10 μM, BCNU none): 380 ± 36 per 1000 cells

SMILES: Nc1nc(OCc2ccccc2)c2nc(C(F)(F)F)[nH]c2n1 [Compound 1e, O^6-Benzyl-8-trifluoromethylguanine]
melting point: 214 to 216 °C (dec.)
pEC50 [1]: 6.60
ratio of ED50 values in cell-free extracts/intact cells [1]: 1.6
pEC50 [2]: 6.40

SMILES: Cc1nc2c(OCc3ccccc3)nc(N)nc2[nH]1 [Compound 1b, O^6-benzyl-8-methylguanine]
pEC50 [1]: 7.00
pEC50 [2]: 6.52
Colony Formation per 1000 cells (HT-29 colon cancer cells; inactivator 1 μM, BCNU 40 μM): 230 ± 51 per 1000 cells
Colony Formation per 1000 cells (HT-29 colon cancer cells; inactivator 10 μM, BCNU 40 μM): <1 per 1000 cells
Colony Formation per 1000 cells (HT-29 colon cancer cells; inactivator 10 μM, BCNU none): 513 ± 76 per 1000 cells
Colony Formation per 1000 cells ([3]; inactivator 10 μM, BCNU 40 μM): 2 ± 1 per 1000 cells
Colony Formation per 1000 cells ([3]; inactivator 10 μM, BCNU none): 376 ± 76 per 1000 cells
Colony Formation per 1000 cells ([4]; inactivator 1 μM, BCNU 40 μM): 306 ± 157 per 1000 cells
Colony Formation per 1000 cells ([4]; inactivator 10 μM, BCNU 40 μM): 50 ± 7 per 1000 cells
Colony Formation per 1000 cells ([4]; inactivator 10 μM, BCNU none): 357 ± 43 per 1000 cells

SMILES: Nc1nc(OCc2ccccc2)c2nc(Br)[nH]c2n1 [Compound 1d, O^6-Benzyl-8-bromoguanine]
pEC50 [1]: 7.22
ratio of ED50 values in cell-free extracts/intact cells [1]: 1.6
AGT inactivating activity in intact HT29 cells, in words [1]: somewhat less active in cells than expected
pEC50 [2]: 7.10
AGT inactivating activity in HT29 cell-free extracts, in words [2]: essentially as active as pyrimidines 3d and 3e
Colony Formation per 1000 cells (HT-29 colon cancer cells; inactivator 1 μM, BCNU 40 μM): 299 ± 30 per 1000 cells
Colony Formation per 1000 cells (HT-29 colon cancer cells; inactivator 10 μM, BCNU 40 μM): 1 ± 0 per 1000 cells
Colony Formation per 1000 cells (HT-29 colon cancer cells; inactivator 10 μM, BCNU none): 401 ± 22 per 1000 cells
Colony Formation per 1000 cells ([3]; inactivator 10 μM, BCNU 40 μM): 3 ± 1 per 1000 cells
Colony Formation per 1000 cells ([3]; inactivator 10 μM, BCNU none): 380 ± 109 per 1000 cells
Colony Formation per 1000 cells ([3]; inactivator […], BCNU 40 μM): 4 ± 3 per 1000 cells
Colony Formation per 1000 cells ([4]; inactivator 1 μM, BCNU 40 μM): 267 ± 39 per 1000 cells
Colony Formation per 1000 cells ([4]; inactivator 10 μM, BCNU 40 μM): 16 ± 3 per 1000 cells
Colony Formation per 1000 cells ([4]; inactivator 10 μM, BCNU none): 493 ± 90 per 1000 cells

SMILES: Nc1nc(N)nc(OCc2ccccc2)n1 [Compound 6, 2,4-Diamino-6-benzyloxy-s-triazine]
pEC50 [1]: 6.00
pEC50 [2]: 5.40
AGT inactivating activity in HT29 cell-free extracts, in words [2]: considerably more active than 3b

SMILES: O=NN(CCCl)C(=O)NCCCl [BCNU, 1,3-bis(2-chloroethyl)-1-nitrosourea, reference compound]
Colony Formation per 1000 cells (HT-29 colon cancer cells; no inactivator, BCNU 40 μM): 442 ± 34 per 1000 cells
effect of agent alone on cell colony number, in words (HT-29 colon cancer cells; statement covers HT29, DU-145 and MCF-71 cells (Tables 3-5)): no significant effect on cell colony number
Colony Formation per 1000 cells ([3]; no inactivator, BCNU 40 μM): 364 ± 60 per 1000 cells
Colony Formation per 1000 cells ([4]; no inactivator, BCNU 40 μM): 394 ± 76 per 1000 cells

SMILES: Nc1nc(OCc2ccccc2)c2nn[nH]c2n1 [Compound 2, 8-Aza-O^6-benzylguanine]
pEC50 [1]: 7.22
pEC50 [2]: 7.15
Colony Formation per 1000 cells (HT-29 colon cancer cells; inactivator 1 μM, BCNU 40 μM): 423 ± 42 per 1000 cells
Colony Formation per 1000 cells (HT-29 colon cancer cells; inactivator 10 μM, BCNU 40 μM): 2 ± 1 per 1000 cells
Colony Formation per 1000 cells (HT-29 colon cancer cells; inactivator 10 μM, BCNU none): 537 ± 48 per 1000 cells
Colony Formation per 1000 cells ([3]; inactivator 10 μM, BCNU 40 μM): 2 ± 1 per 1000 cells
Colony Formation per 1000 cells ([3]; inactivator 10 μM, BCNU none): 483 ± 27 per 1000 cells
Colony Formation per 1000 cells ([4]; inactivator 1 μM, BCNU 40 μM): 248 ± 21 per 1000 cells
Colony Formation per 1000 cells ([4]; inactivator 10 μM, BCNU 40 μM): 28 ± 5 per 1000 cells
Colony Formation per 1000 cells ([4]; inactivator 10 μM, BCNU none): 452 ± 72 per 1000 cells
